Measured values reported in ChEMBL document CHEMBL1201862, “PubChem BioAssay data set” (2004).
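Grown in 96-well plates, cells were treated for 48 hours with each compound at five concentrations. Insufficient inhibition: endpoint recorded as highest concentration tested. GI50: concentration for 50% inhibition of growth.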 The source made the active and inactive calls. Cut-off read from the data, not from the text of the source: active = GI50 up to about 1.1 µM and inactive = higher. Non-standard residues stand in square brackets, D forms with d. Residues, ends and D or L forms follow the SMILES beside them. *: point of attachment. Bn2Val = CC(C)[C@@H](C(=O)*)N(Cc1ccccc1)Cc1ccccc1; NMeV = CN[C@H](C(=O)O)C(C)C; X32 = COc1ccc(CN*)c(OC)c1; dNMeA = CN[C@H](C)C(=O)O

Legend:
Test in all cases: growth of human tumour cells (NCI), 48 h
OVCAR-3 = system: OVCAR-3
SN12C = system: SN12C
OVCAR-4 = system: OVCAR-4
U-251 = system: U-251
SF-295 = system: SF-295
MDA-N = system: MDA-N
MOLT-4 = system: MOLT-4
A498 = system: A498
HL-60 = system: HL-60
UACC-62 = system: UACC-62
COLO 205 = system: COLO 205
HCC 2998 = system: HCC 2998
NCI-H23 = system: NCI-H23
HCT-15 = system: HCT-15
M14 = system: M14
K562 = system: K562
786-0 = system: 786-0
CAKI-1 = system: CAKI-1
SK-MEL-28 = system: SK-MEL-28
NCI-H522 = system: NCI-H522

Row | Compound | GI50 (OVCAR-3) | GI50 (SN12C) | GI50 (OVCAR-4) | GI50 (U-251) | GI50 (SF-295) | GI50 (MDA-N) | GI50 (MOLT-4) | GI50 (A498) | GI50 (HL-60) | GI50 (UACC-62) | GI50 (COLO 205) | GI50 (HCC 2998) | GI50 (NCI-H23) | GI50 (HCT-15) [µM] | GI50 (M14) | GI50 (K562) | GI50 (786-0) | GI50 (CAKI-1) | GI50 (SK-MEL-28) | GI50 (NCI-H522)
1 | CCOC(=O)c1cnc2oc3ccc(O)cc3c2c1-c1ccccc1 | > 100 µM (inactive) | 37.9 µM (inactive) | 24.4 µM (inactive) | 44.8 µM (inactive) | 37.2 µM (inactive) | 52.7 µM (inactive) | 7.4 µM (inactive) | > 100 µM (inactive) | 14.6 µM (inactive) | 12.8 µM (inactive) | 28.5 µM (inactive) | > 100 µM (inactive) | 32.7 µM (inactive) | 26.7 | 81.3 µM (inactive) | 17.6 µM (inactive) | 58.3 µM (inactive) | > 100 µM (inactive) | 36.6 µM (inactive) | –
2 | Cc1ccnc2c1ccc1nc3ccccc3n12 | > 100 µM (inactive) | 61.5 µM (inactive) | 37.8 µM (inactive) | – | 87.7 µM (inactive) | > 100 µM (inactive) | > 100 µM (inactive) | > 100 µM (inactive) | 85.3 µM (inactive) | > 100 µM (inactive) | > 100 µM (inactive) | > 100 µM (inactive) | > 100 µM (inactive) | – | > 100 µM (inactive) | > 100 µM (inactive) | 52.6 µM (inactive) | 11.4 µM (inactive) | – | 17.9 µM (inactive)
3 | CCOc1cc(/C=C2\N=C(c3ccccc3)N(c3nc4ccccc4s3)C2=O)ccc1O | 46.8 µM (inactive) | – | 48.3 µM (inactive) | 47.9 µM (inactive) | 80.2 µM (inactive) | 31.3 µM (inactive) | 19.5 µM (inactive) | 45.4 µM (inactive) | 27.9 µM (inactive) | – | – | 25.1 µM (inactive) | 21.7 µM (inactive) | 24.5 | 44.9 µM (inactive) | 27.9 µM (inactive) | 61.1 µM (inactive) | 39.9 µM (inactive) | 64.4 µM (inactive) | 23.7 µM (inactive)
4 | O=C1CN(c2cccc(Cl)c2)C(=O)CN1CCN1CC(=O)N(c2cccc(Cl)c2)CC1=O | > 100 µM (inactive) | > 100 µM (inactive) | > 100 µM (inactive) | > 100 µM (inactive) | > 100 µM (inactive) | > 100 µM (inactive) | > 100 µM (inactive) | > 100 µM (inactive) | > 100 µM (inactive) | > 100 µM (inactive) | > 100 µM (inactive) | > 100 µM (inactive) | 26.4 µM (inactive) | > 100 | > 100 µM (inactive) | – | > 100 µM (inactive) | > 100 µM (inactive) | > 100 µM (inactive) | > 100 µM (inactive)
5 | CC(C)(C)C1CCC2c3c([nH]c4ccccc34)C3C(=O)N(c4ccc([N+](=O)[O-])cc4)C(=O)C3C2C1 (configuration not stated) | 10.7 µM (inactive) | 4.86 µM (inactive) | 5.62 µM (inactive) | 15.6 µM (inactive) | 27.2 µM (inactive) | 28.5 µM (inactive) | 5.28 µM (inactive) | 24.3 µM (inactive) | 6.11 µM (inactive) | 3.12 µM (inactive) | 8.71 µM (inactive) | 9.14 µM (inactive) | 10.3 µM (inactive) | 18.1 | 23.9 µM (inactive) | 5.96 µM (inactive) | 5.11 µM (inactive) | – | 96.6 µM (inactive) | 12.5 µM (inactive)
6 | O=C1Nc2cccc(Cl)c2/C1=C\c1c(-c2ccccc2)nc2n1CCS2 | 19.4 µM (inactive) | 16 µM (inactive) | – | 19.6 µM (inactive) | 28.7 µM (inactive) | 18.5 µM (inactive) | 10.6 µM (inactive) | 20.4 µM (inactive) | 16.3 µM (inactive) | 17.9 µM (inactive) | 18.8 µM (inactive) | 21.3 µM (inactive) | 23.3 µM (inactive) | 18.9 | 20.9 µM (inactive) | 17.2 µM (inactive) | 18 µM (inactive) | 22.9 µM (inactive) | 21.2 µM (inactive) | 30.2 µM (inactive)
7 | C[C@@H](c1ccccc1)N(CC#N)[C@H]1CCC[C@]1(O)/C=C/c1ccc2c(c1)OCO2 | – | > 25 µM (inactive) | > 25 µM (inactive) | > 25 µM (inactive) | > 25 µM (inactive) | > 25 µM (inactive) | > 25 µM (inactive) | 3.48 µM (inactive) | > 25 µM (inactive) | 3.59 µM (inactive) | > 25 µM (inactive) | > 25 µM (inactive) | > 25 µM (inactive) | > 25 | > 25 µM (inactive) | > 25 µM (inactive) | > 25 µM (inactive) | > 25 µM (inactive) | > 25 µM (inactive) | > 25 µM (inactive)
8 | CCc1c(Cc2cccc3ccccc23)n2c(nc1=O)SCC2OCCO (configuration not stated) | – | > 100 µM (inactive) | 41.5 µM (inactive) | 76.9 µM (inactive) | – | 40.8 µM (inactive) | 26.6 µM (inactive) | > 100 µM (inactive) | 36.9 µM (inactive) | 56.5 µM (inactive) | > 100 µM (inactive) | 64.1 µM (inactive) | 42.8 µM (inactive) | 43.5 | > 100 µM (inactive) | 30.4 µM (inactive) | > 100 µM (inactive) | > 100 µM (inactive) | > 100 µM (inactive) | 49 µM (inactive)
9 | CCCCOC(=O)c1cc(C(=CCC[C@H]2CC[C@@]3(C)[C@@H](CC[C@@H]4[C@@H]3CC[C@]3(C)[C@@H](C(C)CCCC(C)C)CC[C@@H]43)C2)c2cc(Cl)c(O)c(C(=O)OCCCC)c2)cc(Cl)c1O (some centres not stated) | > 50 µM (inactive) | > 50 µM (inactive) | > 50 µM (inactive) | > 50 µM (inactive) | – | > 50 µM (inactive) | > 5 µM (inactive) | > 50 µM (inactive) | > 50 µM (inactive) | > 50 µM (inactive) | > 50 µM (inactive) | > 50 µM (inactive) | > 50 µM (inactive) | > 50 | – | > 5 µM (inactive) | > 50 µM (inactive) | > 50 µM (inactive) | – | –
10 | C=C(c1ccccc1)C1ON(C)CCc2cc(OC)c(OC)cc21 (configuration not stated) | > 100 µM (inactive) | > 100 µM (inactive) | – | > 100 µM (inactive) | 58.9 µM (inactive) | > 100 µM (inactive) | 89.3 µM (inactive) | > 100 µM (inactive) | > 100 µM (inactive) | > 100 µM (inactive) | > 100 µM (inactive) | > 100 µM (inactive) | 66.2 µM (inactive) | 68.1 | > 100 µM (inactive) | 58.7 µM (inactive) | > 100 µM (inactive) | > 100 µM (inactive) | 45.1 µM (inactive) | 56.4 µM (inactive)
11 | CC(=O)Oc1c(C)cc2c(c1C)C(C)(C)CN2C(=O)C(C)(C)C | 25.2 µM (inactive) | > 100 µM (inactive) | 71.8 µM (inactive) | > 100 µM (inactive) | > 100 µM (inactive) | > 100 µM (inactive) | 25.4 µM (inactive) | 55.6 µM (inactive) | 63.8 µM (inactive) | > 100 µM (inactive) | 58.1 µM (inactive) | > 100 µM (inactive) | 81.1 µM (inactive) | > 100 | 65.9 µM (inactive) | 51.9 µM (inactive) | > 100 µM (inactive) | – | > 100 µM (inactive) | > 100 µM (inactive)
12 | CCOC(=O)c1nc2cc(C(F)(F)F)ccc2nc1Nc1cc(OC)c(OC)c(OC)c1 | > 100 µM (inactive) | > 100 µM (inactive) | – | > 100 µM (inactive) | > 100 µM (inactive) | > 100 µM (inactive) | > 100 µM (inactive) | > 100 µM (inactive) | > 100 µM (inactive) | > 100 µM (inactive) | > 100 µM (inactive) | > 100 µM (inactive) | > 100 µM (inactive) | > 100 | > 100 µM (inactive) | > 100 µM (inactive) | > 100 µM (inactive) | > 100 µM (inactive) | > 100 µM (inactive) | > 100 µM (inactive)
13 | O=c1[nH]c(Nc2nc3ccccc3[nH]2)nc2c1CCC2 | > 100 µM (inactive) | > 100 µM (inactive) | 90.2 µM (inactive) | 64 µM (inactive) | 76.9 µM (inactive) | > 100 µM (inactive) | – | > 100 µM (inactive) | > 100 µM (inactive) | > 100 µM (inactive) | > 100 µM (inactive) | > 100 µM (inactive) | 74.3 µM (inactive) | > 100 | > 100 µM (inactive) | > 100 µM (inactive) | 44.7 µM (inactive) | > 100 µM (inactive) | 82 µM (inactive) | > 100 µM (inactive)
14 | CCCCCCCCCCCC1=C(O)C(=O)C(CC2=C(O)C(=O)C(CCCCCCCCCCC)=C(O)C2=O)=C(O)C1=O | – | > 100 µM (inactive) | 40.7 µM (inactive) | 43.5 µM (inactive) | 35.2 µM (inactive) | > 100 µM (inactive) | > 100 µM (inactive) | 52.2 µM (inactive) | > 10 µM (inactive) | > 100 µM (inactive) | > 100 µM (inactive) | > 100 µM (inactive) | 54.6 µM (inactive) | > 100 | > 100 µM (inactive) | 49.8 µM (inactive) | 59.6 µM (inactive) | 60.5 µM (inactive) | > 100 µM (inactive) | 40.6 µM (inactive)
15 | COc1ccc(CNC(=O)[C@@H]2CCCN2C(=O)[C@@H](C)N(C)C(=O)[C@H](C(C)C)N(C)C(=O)[C@@H](NC(=O)[C@H](C(C)C)N(Cc2ccccc2)Cc2ccccc2)C(C)C)c(OC)c1 (Bn2Val-V[NMeV][dNMeA]P-X32) | 3.63 µM (inactive) | 1.78 µM (inactive) | 3.41 µM (inactive) | 2.25 µM (inactive) | 3.34 µM (inactive) | 2.35 µM (inactive) | – | 2.96 µM (inactive) | 0.0561 µM (active) | 4.18 µM (inactive) | 2.29 µM (inactive) | 2.33 µM (inactive) | 2.94 µM (inactive) | 3.05 | 2.84 µM (inactive) | 0.0706 µM (active) | 3.28 µM (inactive) | 4.04 µM (inactive) | 3.29 µM (inactive) | 3.56 µM (inactive)
